Experimental data: US20240247030A1, “TARGETED DELIVERY OF TERTIARY AMINE-CONTAINING DRUG SUBSTANCES” (Seagen Inc., priority 2014, published 2024)
In brackets after ≈: the same amount, converted by molar mass.

Tests used:
[1] = system: HL60 AML cells; experiment: cells; format: cell-based; conditions: 96 hours; for IC50, HL60, AML: Table 14, cOKT-9 conjugate
Description: (§1) In vitro assays. Cells cultured in log-phase growth were seeded for 24 h in 96-well plates containing 150 μL RPMI 1640 supplemented with 20% FBS. Serial dilutions of antibody-drug conjugates in cell culture media were prepared at 4× working concentrations; 50 μL of each dilution was added to the 96-well plates. Following addition of ADC, cells were incubated with test articles for 4 d at 37° C. After 96 h, growth inhibition was assessed by CellTiter-Glo™ (Promega, Madison, W1) and luminescence was measured on a plate reader. The IC50 value, determined in triplicate, is defined here as the concentration that results in a 50% reduction in cell growth relative to untreated controls.

[2] = system: L428 MDR+ HL cells; experiment: In vitro cytotoxicity (CellTiter-Glo, 96 h); format: cell-based; conditions: 96 hours; for IC50, L428, MDR+ HL: Table 14, cOKT-9 conjugate
[3] = system: KM-H2 HL cells; format: cell-based; conditions: Table 14; cOKT-9 conjugate, 96 hours
[4] = system: HCT-116 CRC cells; format: cell-based; conditions: Table 14; cOKT-9 conjugate, 96 hours
Description: as §1

[5] = system: L540cy Hodgkin lymphoma cells; experiment: In vitro cytotoxicity (CellTiter-Glo, 96 h); format: cell-based; conditions: Table 14; cOKT-9 (anti-transferrin receptor) conjugate, DAR 8 (30) or 6.7 (192), 96 hours
[6] = system: co-culture of L540cy:U268Luc+ cells; experiment: In vitro cytotoxicity, bystander co-culture; format: cell-based; conditions: cAC10 conjugate obtained from compound 30; CD30+ and CD30- cells co-cultured
Description: as §1
The results of Table 2 and Table 3 indicate that potent and immunologically specific Ligand Drug Conjugates are obtained when a tubulysin is incorporated into such constructs as a quaternized drug unit and that such conjugates are active against multi-resistant cell lines. […] L540cy are CD30+ and U266 are CD30^−

[7] = system: HEL9217 AML cells; experiment: In vitro cytotoxicity (CellTiter-Glo, 96 h); format: cell-based; conditions: Homo sapiens, HEL 92.1.7, 96 h, read-out: IC50, HEL9217, MDR+ AML
[8] = system: 786-O RCC cells; experiment: In vitro cytotoxicity (CellTiter-Glo, 96 h); format: cell-based; conditions: Homo sapiens, 786-0, 96 h, read-out: IC50, 786-O, MDR+ RCC
[9] = system: panel of cell lines; experiment: In vitro cytotoxicity, statements across a panel of cell lines; format: cell-based; conditions: cOKT-9 conjugates, cell lines of Table 14
Description: as §1

[10] = J. Med. Chem., 2009, 52, 238-240; cited from earlier work

SMILES	IC50, HL60, AML [1] [ng/mL]	IC50, L428, MDR+ HL [2] [ng/mL]	IC50, KM-H2 MDR+ HL [3] [ng/mL]	IC50, HCT-116, CRC [4] [ng/mL]	IC50, L540cy, HL [5] [ng/mL]	IC50 against a co-culture of L540cy:U268Luc+ cells [6] [ng/mL]	IC50 ([1]; Homo sapiens, HL-60, 96 h, read-out: IC50, HL60, AML, Table 13, free drug) [nM]	IC50 ([2]; Homo sapiens, L-428, 96 h, read-out: IC50, L428, MDR+ HL, Table 13, free drug) [nM]	IC50 [7] [nM]	IC50 [8] [nM]	less potent than the quaternary amine-linked TubM (30) conjugate [9]	loss of potency on deacetylation of tubulysin U [10] [fold]
CC[C@H](C)[C@H](NC(=O)[C@H]1CCCC[N+]1(C)Cc1ccc(NC(=O)[C@H](C)NC(=O)[C@@H](NC(=O)CCCCCN2C(=O)C=CC2=O)C(C)C)cc1)C(=O)N(C)[C@H](C[C@@H](OC(C)=O)c1nc(C(=O)N[C@@H](Cc2ccccc2)C[C@H](C)C(=O)O)cs1)C(C)C (stereo partly drawn) [Compound 30, (2R)-2-(((2S,3S)-1-(((1R,3R)-1-acetoxy-1-(4-(((2R,4S)-4-carboxy-1-phenylpentan-2-yl)carbamoyl)thiazol-2-yl)-4-methylpentan-3-yl)(methyl)amino)-3-methyl-1-oxopentan-2-yl)carbamoyl)-1-(4-((S)-2-((S)-2-(6-(2,5-dioxo-2,5-dihydro-1H-pyrrol-1-yl)hexanamido)-3-methylbutanamido)propanamido)benzyl)-1-methylpiperidin-1-ium]	6	0.4	<0.26	1	1	6						
CC[C@H](C)[C@H](NC(=O)[C@H]1CCCCN1C)C(=O)N(C)[C@H](C[C@@H](OC(C)=O)c1nc(C(=O)N[C@@H](Cc2ccccc2)C[C@H](C)C(=O)NN)cs1)C(C)C [Compound 190, (1R,3R)-3-((2S,3S)—N,3-dimethyl-2-((R)-1-methylpiperidine-2-carboxamido)pentanamido)-1-(4-(((2R,4S)-5-hydrazinyl-4-methyl-5-oxo-1-phenylpentan-2-yl)carbamoyl)thiazol-2-yl)-4-methylpentyl acetate]							0.8	1	4	4		
CC[C@H](C)[C@H](NC(=O)[C@H]1CCCCN1C)C(=O)N(C)[C@H](C[C@@H](OC(C)=O)c1nc(C(=O)N[C@@H](Cc2ccccc2)C[C@H](C)C(=O)NNC(=O)OCc2ccc(NC(=O)[C@H](CCCNC(N)=O)NC(=O)[C@@H](NC(=O)CCCCCN3C(=O)C=CC3=O)C(C)C)cc2)cs1)C(C)C [Compound 192, 4-((S)-2-((S)-2-(6-(2,5-dioxo-2,5-dihydro-1H-pyrrol-1-yl)hexanamido)-3-methylbutanamido)-5-ureidopentanamido)benzyl 2-((2S,4R)-4-(2-((1R,3R)-1-acetoxy-3-((2S,3S)—N,3-dimethyl-2-((R)-1-methylpiperidine-2-carboxamido)pentanamido)-4-methylpentyl)thiazole-4-carboxamido)-2-methyl-5-phenylpentanoyl)hydrazinecarboxylate]	85 (≈ 0.0634 µM)	284 (≈ 0.212 µM)	56 (≈ 0.0418 µM)	302 (≈ 0.225 µM)	117 (≈ 0.0873 µM)						1-3 logs	
CC[C@H](C)[C@H](NC(=O)[C@H]1CCCCN1C)C(=O)N[C@H](C[C@@H](O)c1nc(C(=O)N[C@@H](Cc2ccccc2)C[C@H](C)C(=O)O)cs1)C(C)C [tubulysin V, Tubulysin V]												> 100
